From PubChem BioAssay AID330 (DTP/NCI, 2004)
Values joined by “and” are separate entries in the source; they are usually repeats but may differ in a detail not shown here. Equal values may be shown once. Toxic doses and inconclusive results are not listed.

Test system: P388 leukemia ip, CD2F1 mice, survival T/C
Experiment: NCI In Vivo Anticancer Drug Screen. Data for tumor model P388 Leukemia (intraperitoneal) in CD2F1 (CDF1) mice
Details: endpoint: median survival time, higher = longer survival
How it was run: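 Mice carrying the transplanted tumor received test compound or vehicle. Survival was recorded in each group, and the value is the treated-group measurement divided by that of the vehicle-treated control group.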

[1] = dose: 60.0 mg/kg/injection, schedule: Q01DX005 (ip), vehicle: saline with Tween-80
[2] = dose: 120.0 mg/kg/injection, schedule: Q01DX005 (ip), vehicle: saline with Tween-80
[3] = dose: 240.0 mg/kg/injection, schedule: Q01DX005 (ip), vehicle: saline with Tween-80
[4] = dose: 50.0 mg/kg/injection, schedule: Q01DX009 (ip), vehicle: saline with Tween-80
[5] = dose: 100.0 mg/kg/injection, schedule: Q01DX009 (ip), vehicle: saline with Tween-80
[6] = dose: 200.0 mg/kg/injection, schedule: Q01DX009 (ip), vehicle: saline with Tween-80
[7] = dose: 100.0 mg/kg/injection, schedule: Q01DX005 (ip), vehicle: saline with Tween-80
[8] = dose: 50.0 mg/kg/injection, schedule: Q04DX003 (ip), vehicle: saline with Tween-80
[9] = dose: 100.0 mg/kg/injection, schedule: Q04DX003 (ip), vehicle: saline with Tween-80
[10] = dose: 200.0 mg/kg/injection, schedule: Q04DX003 (ip), vehicle: saline with Tween-80
[11] = dose: 50.0 mg/kg/injection, schedule: Q01DX005 (ip), vehicle: Klucel (hydroxypropylcellulose) (HPC)
[12] = dose: 100.0 mg/kg/injection, schedule: Q01DX005 (ip), vehicle: Klucel (hydroxypropylcellulose) (HPC)
[13] = dose: 200.0 mg/kg/injection, schedule: Q01DX005 (ip), vehicle: Klucel (hydroxypropylcellulose) (HPC)

With Nc1cc2c(c[n+](CCCCCCCCCC[n+]3cc4c5ccccc5c(N)cc4c4ccccc43)c3ccccc23)c2ccccc12 the T/C (dose: 0.78 mg/kg/injection, schedule: Q04DX003 (ip), vehicle: other) was 118 % of control, the T/C (dose: 12.5 mg/kg/injection, schedule: Q04DX003 (ip), vehicle: distilled water + Tween-80) was 166 % of control and the T/C (dose: 25.0 mg/kg/injection, schedule: Q04DX003 (ip), vehicle: distilled water + Tween-80) was 159 % of control. The T/C (dose: 25.0 mg/kg/injection, schedule: Q04DX003 (ip), vehicle: other) was 160 % of control and 166 % of control, the T/C (dose: 50.0 mg/kg/injection, schedule: Q04DX003 (ip), vehicle: distilled water + Tween-80) was 165 % of control and the T/C (dose: 50.0 mg/kg/injection, schedule: Q04DX003 (ip), vehicle: other) was 157 % of control and 160 % of control. For the same molecule, the T/C (dose: 100.0 mg/kg/injection, schedule: Q04DX003 (ip), vehicle: distilled water + Tween-80) was 161 % of control, the T/C (dose: 200.0 mg/kg/injection, schedule: Q04DX003 (ip), vehicle: distilled water + Tween-80) was 161 % of control and the T/C (dose: 200.0 mg/kg/injection, schedule: Q04DX003 (ip), vehicle: other) was 169 % of control. The T/C (dose: 400.0 mg/kg/injection, schedule: Q04DX003 (ip), vehicle: distilled water + Tween-80) was 175 % of control.

CC(=O)OCC1OC(OC(C)=O)C(NC(=O)C(C)NC(=O)OCc2ccccc2)C(OC(C)=O)C1OC(C)=O (centres undefined) was tested, and the T/C (dose: 12.5 mg/kg/injection, schedule: Q01DX009 (ip), vehicle: other) was 99 % of control, the T/C (dose: 25.0 mg/kg/injection, schedule: Q01DX009 (ip), vehicle: other) was 104 % of control and the T/C (dose: 50.0 mg/kg/injection, schedule: Q01DX009 (ip), vehicle: other) was 113 % of control. The T/C (dose: 100.0 mg/kg/injection, schedule: Q01DX009 (ip), vehicle: other) was 104 % of control and the T/C (dose: 200.0 mg/kg/injection, schedule: Q01DX009 (ip), vehicle: other) was 92 % of control.

For COc1cc(C(=O)CC(=O)CCC(=O)Nc2ccc(Cl)cc2)ccc1O, the T/C [1] was 104 % of control, the T/C [2] was 103 % of control and the T/C [3] was 98 % of control.

With CCOC(=O)c1ccc(NC(=O)Oc2cc(C)ccc2C)cc1 the T/C (dose: 3.75 mg/kg/injection, schedule: Q01DX005 (ip), vehicle: saline with Tween-80) was 93 % of control, the T/C (dose: 7.5 mg/kg/injection, schedule: Q01DX005 (ip), vehicle: saline with Tween-80) was 90 % of control and the T/C (dose: 15.0 mg/kg/injection, schedule: Q01DX005 (ip), vehicle: saline with Tween-80) was 90 % of control and 94 % of control. The T/C [1] was 94 % of control.

In the case of C(=NCCSSCCN=Cc1ccccc1)c1ccccc1, the T/C [1] was 93 % of control, the T/C [2] was 93 % of control and the T/C [3] was 103 % of control.

CN(C)/C=N/c1c(CO)c(-c2ccccc2)nn1-c1ccccc1 was tested, and the T/C [4] was 104 % of control, the T/C [5] was 100 % of control and the T/C [6] was 104 % of control. The T/C (dose: 400.0 mg/kg/injection, schedule: Q01DX009 (ip), vehicle: saline with Tween-80) was 105 % of control.

CN(C)CCCOC(=O)Cc1cccc2c(=O)cc(-c3ccccc3)oc12 was tested, and the T/C (dose: 50.0 mg/kg/injection, schedule: Q01DX009 (ip), vehicle: saline) was 101 % of control, the T/C (dose: 100.0 mg/kg/injection, schedule: Q01DX009 (ip), vehicle: saline) was 99 % of control and the T/C (dose: 200.0 mg/kg/injection, schedule: Q01DX009 (ip), vehicle: saline) was 118 % of control.

C/C=C/c1cnc2nc(N)nc(N)c2n1 was tested, and the T/C (dose: 100.0 mg/kg/injection, schedule: Q04DX002 (ip), vehicle: saline with Tween-80) was 99 % of control, the T/C (dose: 200.0 mg/kg/injection, schedule: Q04DX002 (ip), vehicle: saline with Tween-80) was 104 % of control and the T/C (dose: 400.0 mg/kg/injection, schedule: Q04DX002 (ip), vehicle: saline with Tween-80) was 107 % of control.

With O=[N+]([O-])c1ccc([I+]c2ccccc2)cc1 the T/C (dose: 12.5 mg/kg/injection, schedule: Q01DX009 (ip), vehicle: saline with Tween-80) was 154 % of control, the T/C (dose: 25.0 mg/kg/injection, schedule: Q01DX005 (ip), vehicle: saline with Tween-80) was 120 % of control and 124 % of control and the T/C (dose: 25.0 mg/kg/injection, schedule: Q01DX009 (ip), vehicle: saline with Tween-80) was 153 % of control. The T/C [4] was 153 % of control, the T/C [1] was 98 % of control and the T/C [7] was 88 % of control.

O=C1NC(CCCl)C(=O)NC1CCCl (centres undefined) was tested, and the T/C (dose: 50.0 mg/kg/injection, schedule: Q01DX005 (ip), vehicle: saline with Tween-80) was 96 % of control, the T/C [4] was 110 % of control and the T/C [8] was 95 % of control. The T/C [7] was 100 % of control, the T/C [5] was 95 % of control and the T/C [9] was 100 % of control. For the same molecule, the T/C (dose: 200.0 mg/kg/injection, schedule: Q01DX005 (ip), vehicle: saline with Tween-80) was 100 % of control, the T/C [6] was 110 % of control and the T/C [10] was 100 % of control.

For CCCCn1c(=S)sc2ccccc21, the T/C [8] was 98 % of control, the T/C [9] was 100 % of control and the T/C [10] was 104 % of control. The T/C (dose: 400.0 mg/kg/injection, schedule: Q04DX003 (ip), vehicle: saline with Tween-80) was 104 % of control.

In the case of Cn1cc(Cl)n(C)c(=O)c1=O, the T/C (dose: 6.25 mg/kg/injection, schedule: Q01DX001 (ip), vehicle: saline with Tween-80) was 104 % of control, the T/C (dose: 12.5 mg/kg/injection, schedule: Q01DX001 (ip), vehicle: saline with Tween-80) was 104 % of control and the T/C (dose: 25.0 mg/kg/injection, schedule: Q01DX001 (ip), vehicle: saline with Tween-80) was 118 % of control.

CN1C(=O)/C(=C2\SC(=O)N(CN3CCOCC3)C2=O)c2ccccc21 was tested, and the T/C [11] was 106 % of control, the T/C [12] was 99 % of control and the T/C [13] was 104 % of control.

With COc1ccccc1P(C)(=O)c1ccccc1 (centres undefined) the T/C [11] was 102 % of control, the T/C [12] was 103 % of control and the T/C [13] was 98 % of control.

In the case of Cc1cc2c(c3c1C(C)CCC3=O)C(C)(C)CC2(C)C (centres undefined), the T/C (dose: 50.0 mg/kg/injection, schedule: Q01DX005 (ip), vehicle: saline + Tween-80 + alcohol) was 101 % of control, the T/C (dose: 100.0 mg/kg/injection, schedule: Q01DX005 (ip), vehicle: saline + Tween-80 + alcohol) was 108 % of control and the T/C (dose: 200.0 mg/kg/injection, schedule: Q01DX005 (ip), vehicle: saline + Tween-80 + alcohol) was 104 % of control.

CCOC(=O)/C=C/C(CO)OC(/C=C/C(=O)OCC)n1cnc2c(N)ncnc21 (centres undefined) was tested, and the T/C (dose: 100.0 mg/kg/injection, schedule: Q04DX002 (ip), vehicle: Klucel (hydroxypropylcellulose) (HPC)) was 101 % of control, the T/C (dose: 200.0 mg/kg/injection, schedule: Q04DX002 (ip), vehicle: Klucel (hydroxypropylcellulose) (HPC)) was 108 % of control and the T/C (dose: 400.0 mg/kg/injection, schedule: Q04DX002 (ip), vehicle: Klucel (hydroxypropylcellulose) (HPC)) was 111 % of control.
